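Following 48 hours of exposure in 96-well plates, responses at five concentrations were used to interpolate endpoints linearly. GI50 is the concentration that inhibits growth by half. TGI denotes the concentration required for complete inhibition of growth.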
Key:
Assay in all cases: inhibition of tumour cell growth, NCI panel, 48 h
SW-620 colon = system: SW-620 colon
CCRF-CEM leukemia = system: CCRF-CEM leukemia
SN12C renal = system: SN12C renal
MALME-3M melanoma = system: MALME-3M melanoma
HT29 colon = system: HT29 colon
HOP-62 NSCLC = system: HOP-62 NSCLC
M14 melanoma = system: M14 melanoma
MOLT-4 leukemia = system: MOLT-4 leukemia
OVCAR-8 ovarian = system: OVCAR-8 ovarian
OVCAR-4 ovarian = system: OVCAR-4 ovarian

With C=C1C(=O)C23C(O)C1CC[C@H]2C12CCCC(C)(COC(C)=O)[C@H]1[C@H](O)[C@]3(O)OC2 (stereo not given in full) the TGI (SW-620 colon) was 1.92 µM, the TGI (CCRF-CEM leukemia) was 1.16 µM and the TGI (SN12C renal) was 3.44 µM. For the same molecule, the TGI (MALME-3M melanoma) was 3.01 µM, the TGI (HT29 colon) was 3.36 µM and the TGI (HOP-62 NSCLC) was 8.56 µM. For the same molecule, the TGI (M14 melanoma) was 2.84 µM, the TGI (MOLT-4 leukemia) was 0.72 µM and the TGI (OVCAR-8 ovarian) was 3.52 µM. The TGI (OVCAR-4 ovarian) was 5.49 µM.
O=C(Cl)C1=C(c2ccccc2)C1c1ccccc1 (stereo not given) showed a TGI (SW-620 colon) greater than 100 µM, a TGI (CCRF-CEM leukemia) greater than 100 µM and a TGI (SN12C renal) greater than 100 µM. The TGI (MALME-3M melanoma) was greater than 100 µM, the TGI (HT29 colon) was greater than 100 µM and the TGI (HOP-62 NSCLC) was greater than 100 µM. It also gave a TGI (M14 melanoma) greater than 100 µM, a TGI (MOLT-4 leukemia) greater than 100 µM and a TGI (OVCAR-8 ovarian) greater than 100 µM. It also gave a TGI (OVCAR-4 ovarian) greater than 100 µM.
COc1ccc(Nc2nccc(N3CCN(c4c5ccc(Cl)cc5nc5ccc(OC)cc45)CC3)n2)cc1 showed a GI50 (SW-620 colon) of 7.19 µM, a TGI (SW-620 colon) greater than 100 µM and a GI50 (CCRF-CEM leukemia) of 2.77 µM. For the same molecule, the TGI (CCRF-CEM leukemia) was greater than 100 µM, the GI50 (SN12C renal) was 6.06 µM and the TGI (SN12C renal) was greater than 100 µM. For the same molecule, the GI50 (MALME-3M melanoma) was 92 µM, the TGI (MALME-3M melanoma) was greater than 100 µM and the GI50 (HT29 colon) was 6.61 µM. The TGI (HT29 colon) was greater than 100 µM, the GI50 (HOP-62 NSCLC) was 38.7 µM and the TGI (HOP-62 NSCLC) was greater than 100 µM. The GI50 (M14 melanoma) was 33 µM, the TGI (M14 melanoma) was greater than 100 µM and the GI50 (MOLT-4 leukemia) was 3.05 µM. The TGI (MOLT-4 leukemia) was greater than 100 µM, the GI50 (OVCAR-8 ovarian) was 6.53 µM and the TGI (OVCAR-8 ovarian) was greater than 100 µM. The GI50 (OVCAR-4 ovarian) was 18.2 µM and the TGI (OVCAR-4 ovarian) was greater than 100 µM.
Cn1c(=O)nc2n(-c3ccc(Cl)c(C(F)(F)F)c3)c3ccccc3nc-2c1=O gave a TGI (SW-620 colon) of 62 µM, a TGI (CCRF-CEM leukemia) greater than 100 µM and a TGI (SN12C renal) greater than 100 µM. For the same molecule, the TGI (MALME-3M melanoma) was 34.7 µM, the TGI (HT29 colon) was 64.8 µM and the TGI (HOP-62 NSCLC) was greater than 100 µM. It also gave a TGI (M14 melanoma) greater than 91.3 µM, a TGI (MOLT-4 leukemia) greater than 100 µM and a TGI (OVCAR-8 ovarian) of 83.1 µM. The TGI (OVCAR-4 ovarian) was 62.9 µM.
For Cc1ccc(NC(=O)/C(Cc2cc(=O)oc3cc(O)ccc23)=N\NC(=O)C[N+](C)(C)C)cc1C, the TGI (SW-620 colon) was greater than 100 µM, the TGI (CCRF-CEM leukemia) was greater than 100 µM and the TGI (SN12C renal) was greater than 100 µM. It also gave a TGI (MALME-3M melanoma) greater than 100 µM, a TGI (HT29 colon) greater than 100 µM and a TGI (HOP-62 NSCLC) greater than 100 µM. It also gave a TGI (M14 melanoma) greater than 100 µM, a TGI (MOLT-4 leukemia) greater than 100 µM and a TGI (OVCAR-8 ovarian) greater than 100 µM. For the same molecule, the TGI (OVCAR-4 ovarian) was greater than 100 µM.
COC(=O)C1C(=O)N(CCc2c[nH]c3ccccc23)C[C@@H]2CCC(=O)C[C@H]12 (stereo not given in full) showed a TGI (SW-620 colon) greater than 100 µM, a TGI (CCRF-CEM leukemia) greater than 100 µM and a TGI (SN12C renal) greater than 100 µM. It also gave a TGI (MALME-3M melanoma) greater than 100 µM, a TGI (HT29 colon) greater than 100 µM and a TGI (HOP-62 NSCLC) greater than 100 µM. For the same molecule, the TGI (M14 melanoma) was greater than 100 µM, the TGI (MOLT-4 leukemia) was greater than 100 µM and the TGI (OVCAR-8 ovarian) was greater than 100 µM. The TGI (OVCAR-4 ovarian) was greater than 100 µM.
COc1ccc(C2Oc3c(c(O)cc4c3[C@H](c3ccc(O)cc3O)[C@H](O)C(c3ccc(O)c(O)c3)O4)C[C@@H]2O)cc1O (stereo not given in full) showed a TGI (SW-620 colon) greater than 100 µM, a TGI (CCRF-CEM leukemia) greater than 100 µM and a TGI (SN12C renal) greater than 100 µM. The TGI (MALME-3M melanoma) was greater than 100 µM, the TGI (HT29 colon) was greater than 100 µM and the TGI (HOP-62 NSCLC) was greater than 100 µM. The TGI (M14 melanoma) was greater than 100 µM, the TGI (MOLT-4 leukemia) was greater than 100 µM and the TGI (OVCAR-8 ovarian) was greater than 100 µM. The TGI (OVCAR-4 ovarian) was greater than 100 µM.
C[C@]12C/C(=C/O)C(=O)C(O)=C1CC[C@@H]1C2CC[C@@]2(C)C1CC[C@@H]2O (stereo not given in full) gave a TGI (SW-620 colon) greater than 100 µM, a TGI (CCRF-CEM leukemia) of 47.5 µM and a TGI (SN12C renal) of 61.1 µM. The TGI (MALME-3M melanoma) was 46.2 µM, the TGI (HT29 colon) was 65.1 µM and the TGI (HOP-62 NSCLC) was greater than 100 µM. For the same molecule, the TGI (M14 melanoma) was 38.1 µM, the TGI (MOLT-4 leukemia) was 66.5 µM and the TGI (OVCAR-8 ovarian) was 75.6 µM. It also gave a TGI (OVCAR-4 ovarian) of 62.7 µM.
In the case of c1cnn2ncc(-c3ccnc(Nc4ccc5c(c4)OCCO5)n3)c2c1, the GI50 (SW-620 colon) is reported as 0.0786 µM, the TGI (SW-620 colon) is reported as 0.383 µM and the GI50 (CCRF-CEM leukemia) is reported as 0.0879 µM. For the same molecule, the TGI (CCRF-CEM leukemia) was greater than 25 µM, the GI50 (SN12C renal) was 0.0875 µM and the TGI (SN12C renal) was greater than 25 µM. It also gave a GI50 (MALME-3M melanoma) of 0.0833 µM, a TGI (MALME-3M melanoma) of 0.276 µM and a GI50 (HT29 colon) of 0.0691 µM. For the same molecule, the TGI (HT29 colon) was 0.358 µM, the GI50 (HOP-62 NSCLC) was 0.0958 µM and the TGI (HOP-62 NSCLC) was greater than 25 µM. For the same molecule, the GI50 (M14 melanoma) was 0.0699 µM, the TGI (M14 melanoma) was 0.221 µM and the GI50 (MOLT-4 leukemia) was 0.0664 µM. It also gave a TGI (MOLT-4 leukemia) of 0.622 µM, a GI50 (OVCAR-8 ovarian) of 0.0687 µM and a TGI (OVCAR-8 ovarian) greater than 25 µM. The GI50 (OVCAR-4 ovarian) was 0.269 µM and the TGI (OVCAR-4 ovarian) was greater than 25 µM.
